Experimental data: patent US5102907A, “Novel squalene synthetase inhibitors” (Merck & Co., Inc., priority 1990, dated 1992)
Values after ≈ are worked out from the molar mass of the structure shown.

What was measured:
Assay in all cases: antifungal (yeast) sensitivity, inhibitor dilution assay in microtiter format
Settings in all cases: YNB/G, lowest concentration to prevent growth, 24 to 48 hours, 35° C., read-out: Minimum Inhibitory Concentration
C. parapsilosis MY1010 = assay type: cell-based, Candida parapsilosis
Method: (§1) The compounds are particularly active towards filamentous fungi and yeasts including Candida albicans and Cryptococcus neoformans. The sensitivity of filamentous fungi and yeast was determined using inhibitor dilution assays in microtiter format. The compounds were dissolved in DMSO at 2 mg/ml and serially diluted in 0.1M phosphate buffer, pH 7.0 in the microtiter dish from 100 to 0.006 μg/ml. A standardized spore suspension for testing the filamentous fungi was prepared by inoculating Antibiotic Medium #3 containing 1.5% agar with spores such that 1.5×10^3 colony forming units were added per well. The microtiter wells were filled with 50 μl of buffer containing compound and 50 μl of inoculated medium.
(§2) The sensitivity of yeasts was determined by inoculating yeast nitrogen base containing 1% dextrose (YNB/G) with aliquots of an overnight yeast culture grown in Yeast Morphology (YM) media at 35° C. and diluting in YNB/G to yield a final concentration of 1.5-7.5×10^3 colony forming units/well. To test the sensitivity of yeast, compound was solubilized in 10 percent aqueous DMSO at 2.56 mg/ml. The compound was diluted serially in YNB/G from 128 to 0.06 μg/ml and further diluted 1:10 in YNB/G. The wells were filled with 150 μl of media containing drug. […]

Crypt. neoformans MY1051 = assay type: cell-based, Cryptococcus neoformans
Method: as §1, §2

C. tropicalis MY1012 = assay type: cell-based, Candida tropicalis
Method: as §1, §2

CC(=O)OC(CCCC12OC(C(=O)O)C(O)(C(=O)O)C(C(=O)O)(O1)C(OC(=O)CCC=CC(C)CCCc1ccccc1)C2O)C(C)Cc1ccccc1 (stereo not drawn) [Compound A]
MIC (C. parapsilosis MY1010): 8 µg/mL (≈ 10.6 µM) | MIC (Crypt. neoformans MY1051): 1 µg/mL (≈ 1.32 µM) | MIC (C. tropicalis MY1012): 8 µg/mL (≈ 10.6 µM)
